# According to the supplement of paper PMC10307832:
# What was measured:
# Experiment in all cases: relative viability (nuclei count vs DMSO), 5 days (fraction); higher = more cells survive
# HCC-827 = system: HCC-827
# Summary of the method: (§1)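 Relative viability was taken as the ratio of nuclei in treated wells to nuclei in vehicle wells. Lung cancer cell lines in 1536-well plates received compounds by pin tool one day after seeding, either one drug alone or a fixed anchor-drug dose plus five library-drug doses (not always all listed) in √10 steps. Nuclei were counted on 4× images after 5 days of treatment, and values are medians of duplicate plates.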
# NCI-H520 = system: NCI-H520
# Summary of the method: as §1
# EMC-BAC-2 = system: EMC-BAC-2
# Summary of the method: as §1
# ChaGo-K-1 = system: ChaGo-K-1
# Summary of the method: as §1
# NCI-H1563 = system: NCI-H1563
# Summary of the method: as §1
# NCI-H1944 = system: NCI-H1944
# Summary of the method: as §1
# NCI-H2087 = system: NCI-H2087
# Summary of the method: as §1
# NCI-H2405 = system: NCI-H2405
# Summary of the method: as §1
# SK-MES-1 = system: SK-MES-1
# Summary of the method: as §1
# NCI-H1355 = system: NCI-H1355
# Summary of the method: as §1
# LCLC-97TM1 = system: LCLC-97TM1
# Summary of the method: as §1
# NCI-H322M = system: NCI-H322M
# Summary of the method: as §1
# NCI-H2085 = system: NCI-H2085
# Summary of the method: as §1
# LCLC-103H = system: LCLC-103H
# Summary of the method: as §1
# UMC-11 = system: UMC-11
# Summary of the method: as §1
# NCI-H650 = system: NCI-H650
# Summary of the method: as §1
# HCC-44 = system: HCC-44
# Summary of the method: as §1
# EPLC-272H = system: EPLC-272H
# Summary of the method: as §1
# NCI-H1651 = system: NCI-H1651
# Summary of the method: as §1
# NCI-H1793 = system: NCI-H1793
# Summary of the method: as §1
# H3255 = system: H3255
# Summary of the method: as §1
# NCI-H1395 = system: NCI-H1395
# Summary of the method: as §1
# NCI-H2023 = system: NCI-H2023
# Summary of the method: as §1
structure (smiles),measurement,setting,value
NC(=O)Nc1cc(-c2cccc(F)c2)sc1C(=O)N[C@H]1CCCNC1 [AZD7762] + CCNC(=O)c1noc(-c2cc(C(C)C)c(O)cc2O)c1-c1ccc(CN2CCOCC2)cc1 [Luminespib] (partner 0.01 µM),relative viability,HCC-827; first compound 0.01 µM,0.598
same,relative viability,HCC-827; first compound 0.03162 µM,0.677
same,relative viability,HCC-827; first compound 0.1 µM,0.604
same,relative viability,HCC-827; first compound 0.3162 µM,0.459
same,relative viability,HCC-827; first compound 1 µM,0.213
same,relative viability,NCI-H520; first compound 0.01 µM,0.208
same,relative viability,NCI-H520; first compound 0.03162 µM,0.191
same,relative viability,NCI-H520; first compound 0.1 µM,0.238
same,relative viability,NCI-H520; first compound 0.3162 µM,0.254
same,relative viability,NCI-H520; first compound 1 µM,0.234
same,relative viability,EMC-BAC-2; first compound 0.01 µM,1.23
same,relative viability,EMC-BAC-2; first compound 0.03162 µM,1.16
same,relative viability,EMC-BAC-2; first compound 0.1 µM,1.19
same,relative viability,EMC-BAC-2; first compound 0.3162 µM,1.23
same,relative viability,EMC-BAC-2; first compound 1 µM,1.04
same,relative viability,ChaGo-K-1; first compound 0.01 µM,0.601
same,relative viability,ChaGo-K-1; first compound 0.03162 µM,0.578
same,relative viability,ChaGo-K-1; first compound 0.1 µM,0.692
same,relative viability,ChaGo-K-1; first compound 0.3162 µM,0.513
same,relative viability,ChaGo-K-1; first compound 1 µM,0.354
same,relative viability,NCI-H1563; first compound 0.01 µM,0.524
same,relative viability,NCI-H1563; first compound 0.03162 µM,0.507
same,relative viability,NCI-H1563; first compound 0.1 µM,0.523
same,relative viability,NCI-H1563; first compound 0.3162 µM,0.505
same,relative viability,NCI-H1563; first compound 1 µM,0.475
same,relative viability,NCI-H1944; first compound 0.01 µM,0.85
same,relative viability,NCI-H1944; first compound 0.03162 µM,0.838
same,relative viability,NCI-H1944; first compound 0.1 µM,0.871
same,relative viability,NCI-H1944; first compound 0.3162 µM,0.82
same,relative viability,NCI-H1944; first compound 1 µM,0.689
same,relative viability,NCI-H2087; first compound 0.01 µM,0.203
same,relative viability,NCI-H2087; first compound 0.03162 µM,0.145
same,relative viability,NCI-H2087; first compound 0.1 µM,0.237
same,relative viability,NCI-H2087; first compound 0.3162 µM,0.173
same,relative viability,NCI-H2087; first compound 1 µM,0.162
same,relative viability,NCI-H2405; first compound 0.01 µM,0.823
same,relative viability,NCI-H2405; first compound 0.03162 µM,0.707
same,relative viability,NCI-H2405; first compound 0.1 µM,0.784
same,relative viability,NCI-H2405; first compound 0.3162 µM,0.672
same,relative viability,NCI-H2405; first compound 1 µM,0.33
same,relative viability,SK-MES-1; first compound 0.01 µM,1.08
same,relative viability,SK-MES-1; first compound 0.03162 µM,0.715
same,relative viability,SK-MES-1; first compound 0.1 µM,0.38
same,relative viability,SK-MES-1; first compound 0.3162 µM,0.19
same,relative viability,SK-MES-1; first compound 1 µM,0.175
same,relative viability,NCI-H1355; first compound 0.01 µM,0.709
same,relative viability,NCI-H1355; first compound 0.03162 µM,0.751
same,relative viability,NCI-H1355; first compound 0.1 µM,0.812
same,relative viability,NCI-H1355; first compound 0.3162 µM,0.717
same,relative viability,NCI-H1355; first compound 1 µM,0.581
same,relative viability,LCLC-97TM1; first compound 0.01 µM,0.876
same,relative viability,LCLC-97TM1; first compound 0.03162 µM,0.706
same,relative viability,LCLC-97TM1; first compound 0.1 µM,0.738
same,relative viability,LCLC-97TM1; first compound 0.3162 µM,0.771
same,relative viability,LCLC-97TM1; first compound 1 µM,0.786
same,relative viability,NCI-H322M; first compound 0.01 µM,0.851
same,relative viability,NCI-H322M; first compound 0.03162 µM,0.827
same,relative viability,NCI-H322M; first compound 0.1 µM,0.357
same,relative viability,NCI-H322M; first compound 0.3162 µM,0.248
same,relative viability,NCI-H322M; first compound 1 µM,0.245
same,relative viability,NCI-H2085; first compound 0.01 µM,0.47
same,relative viability,NCI-H2085; first compound 0.03162 µM,0.468
same,relative viability,NCI-H2085; first compound 0.1 µM,0.475
same,relative viability,NCI-H2085; first compound 0.3162 µM,0.459
same,relative viability,NCI-H2085; first compound 1 µM,0.374
same,relative viability,LCLC-103H; first compound 0.01 µM,1.06
same,relative viability,LCLC-103H; first compound 0.03162 µM,0.932
same,relative viability,LCLC-103H; first compound 0.1 µM,1.01
same,relative viability,LCLC-103H; first compound 0.3162 µM,0.943
same,relative viability,LCLC-103H; first compound 1 µM,0.953
same,relative viability,UMC-11; first compound 0.01 µM,1.14
same,relative viability,UMC-11; first compound 0.03162 µM,0.999
same,relative viability,UMC-11; first compound 0.1 µM,1.09
same,relative viability,UMC-11; first compound 0.3162 µM,0.593
same,relative viability,UMC-11; first compound 1 µM,0.384
same,relative viability,NCI-H650; first compound 0.01 µM,0.801
same,relative viability,NCI-H650; first compound 0.03162 µM,0.728
same,relative viability,NCI-H650; first compound 0.1 µM,0.763
same,relative viability,NCI-H650; first compound 0.3162 µM,0.641
same,relative viability,NCI-H650; first compound 1 µM,0.458
same,relative viability,HCC-44; first compound 0.01 µM,1.14
same,relative viability,HCC-44; first compound 0.03162 µM,0.997
same,relative viability,HCC-44; first compound 0.1 µM,0.918
same,relative viability,HCC-44; first compound 0.3162 µM,0.96
same,relative viability,HCC-44; first compound 1 µM,0.423
same,relative viability,EPLC-272H; first compound 0.01 µM,0.55
same,relative viability,EPLC-272H; first compound 0.03162 µM,0.303
same,relative viability,EPLC-272H; first compound 0.1 µM,0.319
same,relative viability,EPLC-272H; first compound 0.3162 µM,0.459
same,relative viability,EPLC-272H; first compound 1 µM,0.143
same,relative viability,NCI-H1651; first compound 0.01 µM,0.98
same,relative viability,NCI-H1651; first compound 0.03162 µM,0.872
same,relative viability,NCI-H1651; first compound 0.1 µM,0.802
same,relative viability,NCI-H1651; first compound 0.3162 µM,0.487
same,relative viability,NCI-H1651; first compound 1 µM,0.215
same,relative viability,NCI-H1793; first compound 0.01 µM,0.175
same,relative viability,NCI-H1793; first compound 0.03162 µM,0.195
same,relative viability,NCI-H1793; first compound 0.1 µM,0.163
same,relative viability,NCI-H1793; first compound 0.3162 µM,0.403
same,relative viability,NCI-H1793; first compound 1 µM,0.179
same,relative viability,H3255; first compound 0.01 µM,1.02
same,relative viability,H3255; first compound 0.03162 µM,0.982
same,relative viability,H3255; first compound 0.1 µM,0.975
same,relative viability,H3255; first compound 0.3162 µM,0.913
same,relative viability,H3255; first compound 1 µM,0.962
same,relative viability,NCI-H1395; first compound 0.01 µM,0.699
same,relative viability,NCI-H1395; first compound 0.03162 µM,0.788
same,relative viability,NCI-H1395; first compound 0.1 µM,0.888
same,relative viability,NCI-H1395; first compound 0.3162 µM,0.468
same,relative viability,NCI-H1395; first compound 1 µM,0.341
same,relative viability,NCI-H2023; first compound 0.01 µM,0.824
same,relative viability,NCI-H2023; first compound 0.03162 µM,0.498
same,relative viability,NCI-H2023; first compound 0.1 µM,0.228
same,relative viability,NCI-H2023; first compound 0.3162 µM,0.141
same,relative viability,NCI-H2023; first compound 1 µM,0.114
